Data: US20190022152A1, “MICROBIOME RESPONSE TO AGENTS” (Yeda Research and Development Co., Ltd., priority 2014, published 2019)

System: fecal microbiota KEGG pathways
Experiment: Shotgun metagenomic sequencing: KEGG pathway abundance (Table 2)
Format: in vivo, mice
Description: Illumina sequence reads were mapped to the human microbiome reference genome database of the Human Microbiome Project [www(dot)hmpdacc(dot)org/HMREFG/^32], and to a gut microbial gene catalogue^33 using GEM mapper^58 with the following parameters: • -m 3 -s 0 -q offset-33 -gem-quality-threshold 26
Microbial species abundance was measured as the fraction of reads that mapped to a single species in the database. An EM algorithm adapted from Pathoscope^59 was employed to determine the correct assignment of reads that mapped to more than one species. We considered only species for which at least 10% of the genome was covered (each coverage bin was 10,000-bp long) in at least one of the growth conditions (saccharin, water, or glucose). Reads mapped to the gut microbial gene catalogue were assigned a KEGG^34,35 ID according to the mapping available with the catalogue. Genes were subsequently mapped to KEGG pathways, and only pathways whose gene coverage was above 0.2 were included.

O=C1NS(=O)(=O)c2ccccc21 [saccharin]
glycan degradation pathways abundance (GF mice transplanted with microbiomes cultured in vitro with 5 mgml^−1 saccharin vs PBS): highly enriched
Log_fold change: 2-Oxocarboxylic acid metabolism (In vivo (week 11/week 0)): 0.10
Log_fold change: ABC transporters (In vivo (week 11/week 0)): 0.02
Log_fold change: Alanine, aspartate and glutamate metabolism (In vivo (week 11/week 0)): 0.02
Log_fold change: Amino sugar and nucleotide sugar metabolism (In vivo (week 11/week 0)): 0.09
Log_fold change: Aminoacyl-tRNA biosynthesis (In vivo (week 11/week 0)): −0.13
Log_fold change: Aminobenzoate degradation (In vivo (week 11/week 0)): 0.04
Log_fold change: Arginine and proline metabolism (In vivo (week 11/week 0)): 0.05
Log_fold change: Ascorbate and aldarate metabolism (In vivo (week 11/week 0)): 0.27
Log_fold change: Atrazine degradation (In vivo (week 11/week 0)): 0.12
Log_fold change: Bacterial chemotaxis (In vivo (week 11/week 0)): 0.30
Log_fold change: Bacterial secretion system (In vivo (week 11/week 0)): −0.10
Log_fold change: Base excision repair (In vivo (week 11/week 0)): 0.03
Log_fold change: Benzoate degradation (In vivo (week 11/week 0)): 0.00
Log_fold change: Biosynthesis of amino acids (In vivo (week 11/week 0)): 0.03
Log_fold change: Biosynthesis of siderophore group nonribosomal peptides (In vivo (week 11/week 0)): 0.16
Log_fold change: Biosynthesis of unsaturated fatty acids (In vivo (week 11/week 0)): −0.07
Log_fold change: Biotin metabolism (In vivo (week 11/week 0)): 0.13
Log_fold change: Bisphenol degradation (In vivo (week 11/week 0)): 0.04
Log_fold change: Butanoate metabolism (In vivo (week 11/week 0)): 0.00
Log_fold change: CS-Branched dibasic acid metabolism (In vivo (week 11/week 0)): 0.11
Log_fold change: Caprolactam degradation (In vivo (week 11/week 0)): 0.29
Log_fold change: Carbon fixation in photosynthetic organisms (In vivo (week 11/week 0)): −0.13
Log_fold change: Carbon fixation pathways in prokaryotes (In vivo (week 11/week 0)): 0.01
Log_fold change: Carbon metabolism (In vivo (week 11/week 0)): 0.00
Log_fold change: Cell cycle-Caulobacter (In vivo (week 11/week 0)): −0.06
Log_fold change: Chloroalkane and chloroalkene degradation (In vivo (week 11/week 0)): −0.07
Log_fold change: Citrate cycle (TCA cycle) (In vivo (week 11/week 0)): 0.03
Log_fold change: Cyanoamino acid metabolism (In vivo (week 11/week 0)): 0.18
Log_fold change: Cysteine and methionine metabolism (In vivo (week 11/week 0)): −0.02
Log_fold change: D-Alanine metabolism (In vivo (week 11/week 0)): −0.10
Log_fold change: D-Arginine and D-ornithine metabolism (In vivo (week 11/week 0)): −0.08
Log_fold change: D-Glutamine and D-glutamate metabolism (In vivo (week 11/week 0)): −0.04
Log_fold change: DDT degradation (In vivo (week 11/week 0)): −0.61
Log_fold change: DNA replication (In vivo (week 11/week 0)): −0.06
Log_fold change: Dioxin degradation (In vivo (week 11/week 0)): −0.34
Log_fold change: Drug metabolism-other enzymes (In vivo (week 11/week 0)): 0.05
Log_fold change: Ether lipid metabolism (In vivo (week 11/week 0)): 0.05
Log_fold change: Fatty acid biosynthesis (In vivo (week 11/week 0)): 0.05
Log_fold change: Fatty acid degradation (In vivo (week 11/week 0)): −0.03
Log_fold change: Fatty acid metabolism (In vivo (week 11/week 0)): 0.06
Log_fold change: Flagellar assembly (In vivo (week 11/week 0)): −0.18
Log_fold change: Folate biosynthesis (In vivo (week 11/week 0)): 0.13
Log_fold change: Fructose and mannose metabolism (In vivo (week 11/week 0)): 0.18
Log_fold change: Galactose metabolism (In vivo (week 11/week 0)): 0.24
Log_fold change: Geraniol degradation (In vivo (week 11/week 0)): 0.04
Log_fold change: Glutathione metabolism (In vivo (week 11/week 0)): 0.12
Log_fold change: Glycerolipid metabolism (In vivo (week 11/week 0)): 0.11
Log_fold change: Glycerophospholipid metabolism (In vivo (week 11/week 0)): 0.06
Log_fold change: Glycine, serine and threonine metabolism (In vivo (week 11/week 0)): 0.13
Log_fold change: Glycolysis/Gluconeogenesis (In vivo (week 11/week 0)): −0.09
Log_fold change: Glycosaminoglycan degradation (In vivo (week 11/week 0)): 0.34
Log_fold change: Glycosphingolipid biosynthesis-globoseries (In vivo (week 11/week 0)): 0.33
Log_fold change: Glyoxylate and dicarboxylate metabolism (In vivo (week 11/week 0)): 0.13
Log_fold change: Histidine metabolism (In vivo (week 11/week 0)): 0.13
Log_fold change: Homologous recombination (In vivo (week 11/week 0)): −0.09
Log_fold change: Inositol phosphate metabolism (In vivo (week 11/week 0)): −0.01
Log_fold change: Limonene and pinene degradation (In vivo (week 11/week 0)): 0.04
Log_fold change: Lipoicacid metabolism (In vivo (week 11/week 0)): 0.36
Log_fold change: Lipopolysaccharide biosynthesis (In vivo (week 11/week 0)): 0.21
Log_fold change: Lysine biosynthesis (In vivo (week 11/week 0)): −0.07
Log_fold change: Lysine degradation (In vivo (week 11/week 0)): 0.14
Log_fold change: Methane metabolism (In vivo (week 11/week 0)): 0.02
Log_fold change: Mismatch repair (In vivo (week 11/week 0)): −0.03
Log_fold change: Naphthalene degradation (In vivo (week 11/week 0)): 0.04
Log_fold change: Nicotinate and nicotinamide metabolism (In vivo (week 11/week 0)): −0.05
Log_fold change: Nitrogen metabolism (In vivo (week 11/week 0)): 0.00
Log_fold change: Nitrotoluene degradation (In vivo (week 11/week 0)): −0.22
Log_fold change: Novobiocin biosynthesis (In vivo (week 11/week 0)): 0.29
Log_fold change: Nucleotide excision repair (In vivo (week 11/week 0)): −0.08
Log_fold change: One carbon pool by folate (In vivo (week 11/week 0)): 0.07
Log_fold change: Other glycan degradation (In vivo (week 11/week 0)): 0.36
Log_fold change: Oxidative phosphorylation (In vivo (week 11/week 0)): −0.03
Log_fold change: Pantothenate and CoA biosynthesis (In vivo (week 11/week 0)): 0.04
Log_fold change: Penicillin and cephalosporin biosynthesis (In vivo (week 11/week 0)): 0.00
Log_fold change: Pentose and glucuronate interconversions (In vivo (week 11/week 0)): 0.31
Log_fold change: Pentose phosphate pathway (In vivo (week 11/week 0)): 0.03
Log_fold change: Peptidoglycan biosynthesis (In vivo (week 11/week 0)): 0.01
Log_fold change: Phenylalanine metabolism (In vivo (week 11/week 0)): 0.30
Log_fold change: Phenylalanine, tyrosine and tryptophan biosynthesis (In vivo (week 11/week 0)): 0.24
Log_fold change: Phosphonate and phosphinate metabolism (In vivo (week 11/week 0)): 0.30
Log_fold change: Phosphotransferase system (PTS) (In vivo (week 11/week 0)): −0.43
Log_fold change: Porphyrin and chlorophyll metabolism (In vivo (week 11/week 0)): 0.23
Log_fold change: Propanoate metabolism (In vivo (week 11/week 0)): 0.02
Log_fold change: Protein export (In vivo (week 11/week 0)): −0.04
Log_fold change: Proximal tubule bicarbonate reclamation (In vivo (week 11/week 0)): −0.01
Log_fold change: Purine metabolism (In vivo (week 11/week 0)): −0.08
Log_fold change: Pyrimidine metabolism (In vivo (week 11/week 0)): −0.08
Log_fold change: Pyruvate metabolism (In vivo (week 11/week 0)): 0.01
Log_fold change: RNA degradation (In vivo (week 11/week 0)): −0.05
Log_fold change: Riboflavin metabolism (In vivo (week 11/week 0)): −0.02
Log_fold change: Ribosome (In vivo (week 11/week 0)): −0.24
Log_fold change: Selenocompound metabolism (In vivo (week 11/week 0)): 0.03
Log_fold change: Sphingolipid metabolism (In vivo (week 11/week 0)): 0.34
Log_fold change: Starch and sucrose metabolism (In vivo (week 11/week 0)): 0.19
Log_fold change: Streptomycin biosynthesis (In vivo (week 11/week 0)): 0.10
Log_fold change: Styrene degradation (In vivo (week 11/week 0)): −0.06
Log_fold change: Sulfur metabolism (In vivo (week 11/week 0)): 0.19
Log_fold change: Sulfur relay system (In vivo (week 11/week 0)): −0.03
Log_fold change: Synthesis and degradation of ketone bodies (In vivo (week 11/week 0)): −0.35
Log_fold change: Taurine and hypotaurine metabolism (In vivo (week 11/week 0)): 0.14
Log_fold change: Terpenoid backbone biosynthesis (In vivo (week 11/week 0)): 0.04
Log_fold change: Tetracycline biosynthesis (In vivo (week 11/week 0)): −0.50
Log_fold change: Thiamine metabolism (In vivo (week 11/week 0)): −0.03
Log_fold change: Tropane, piperidine and pyridine alkaloid biosynthesis (In vivo (week 11/week 0)): 0.27
Log_fold change: Tryptophan metabolism (In vivo (week 11/week 0)): 0.01
Log_fold change: Two−component system (In vivo (week 11/week 0)): 0.06
Log_fold change: Tyrosine metabolism (In vivo (week 11/week 0)): 0.02
Log_fold change: Ubiquinone and other terpenoid-quinone biosynthesis (In vivo (week 11/week 0)): 0.03
Log_fold change: Valine, leucine and isoleucine biosynthesis (In vivo (week 11/week 0)): 0.10
Log_fold change: Valine, leucine and isoleucine degradation (In vivo (week 11/week 0)): 0.06
Log_fold change: Vibriocholerae pathogenic cycle (In vivo (week 11/week 0)): −0.01
Log_fold change: Vitamin B6 metabolism (In vivo (week 11/week 0)): 0.16
Log_fold change: Xylene degradation (In vivo (week 11/week 0)): −0.51
Log_fold change: beta-Alanine metabolism (In vivo (week 11/week 0)): 0.14
Log_fold change: beta-Lactam resistance (In vivo (week 11/week 0)): 0.11
KEGG pathways incl. ascorbate and aldarate metabolism, lipopolysaccharide biosynthesis, bacterial chemotaxis (mice consuming HFD and pure saccharin vs water): multiple enriched pathways
starch and sucrose, fructose and mannose metabolism, folate-, glycerolipid- and fatty acid biosynthesis pathways (microbiomes of saccharin consuming mice): enriched
glucose transport pathways (saccharin-consuming mice): underrepresented
glycan degradation pathways abundance (saccharin-consuming mice, week 11 vs week 0): strong increase
